# Literature values as cited in patent publication US20050266049A1, “Method for the covering of food with polyene antifungal compositions” (D S M IP Assets B.V., priority 2002, published 2005).
compound,measurement,setting,value
C[C@@H]1C/C=C/C=C/C=C/C=C/[C@H](O[C@@H]2O[C@H](C)[C@@H](O)[C@H](N)[C@@H]2O)C[C@@H]2O[C@](O)(C[C@@H](O)C[C@H]3O[C@@H]3/C=C/C(=O)O1)C[C@H](O)[C@H]2C(=O)O [natamycin],solubility of natamycin in water,,30-50 ppm
same,Minimal Inhibitory Concentration (MIC),most foodborn fungi,less than 10 ppm
